Data on four compounds can be found in patent US20260356800A1, “POLYMORPH OF PHENYL PYRROLE HYDRAZINE CARBOXIMIDAMIDE COMPOUND” (SYNACT PHARMA ApS, priority 2022, published 2026).

By solubility is commonly meant how much of the substance goes into solution per volume.

Series [1] is described as follows: Thermodynamic solubility in buffer at 24 h (HPLC of supernatant). It is filed as physicochemical. The following applies: for solubility at 24 h: 0.2 m hcl/kcl, as free-base. The source says:
The solubility of a compound may be assessed by adding a surplus of the compound to a volume of solvent such that some of the compound is not dissolved, then isolating the non-dissolved compound and measuring the amount. The solubility of a compound may alternatively be assessed by adding a surplus of the compound to a volume of solvent such that some of the compound is not dissolved, and then measure the amount of compound in solution. Measuring the amount of compound in solution may be done using any suitable method, such as HPLC, titration, or spectrometry.
The solubility of AP1189 freebase, tosylate salt and fumarate salt were assessed in buffer solutions. An amount of the compound was suspended in buffer and agitated at ambient temperature for 24 hr, before the supernatant was sampled and analysed for the content of AP1189 by HPLC.

Series [2] has as its system MC1R-induced melanogenesis. The following applies: cited from earlier work.
The subject of series [3] is MC1R. The following applies: cited from earlier work.
Series [4] concerns MC3R. The following applies: biased dual agonist; cited from earlier work.
Series [5] relates to cAMP generation (MC1R and MC3R). The following applies: cited from earlier work.
Series [6] concerns MC1R. The following applies: biased dual agonist; cited from earlier work.
The test system of series [7] is ERK1/2-phosphorylation. As to conditions: alternative pathways; cited from earlier work.
The test system of series [8] is Ca^2± mobilisation. The following applies: alternative pathways; cited from earlier work.
Series [9] can be described thus: Initial polymorphism assessment: solubility of AP1189 freebase in solvent systems (aliquot addition). It is filed as physicochemical. The following applies: ambient, gently heated to ca. 40 °C if solid remained. The procedure: An initial polymorphism assessment was carried out in order to identify any potential alternate forms. The initial polymorphism assessment was carried out as follows: To ca. 7 mg of freebase Pattern 1 from DCM evaporation the appropriate solvent system was added in aliquots of 50 μL and if solid remained the vial was gently heated to ca. 40 °C to aid dissolution. Solvent addition was continued until the material had fully dissolved or 1 mL of the appropriate solvent system had been added (<10 mg/mL). Anti-solvent (t-BME) was added dropwise (with stirring) at ambient. If the solutions were already present as slurries prior to addition of anti-solvent, no anti-solvent was added. The experiments were temperature cycled between ambient temperature and 40 °C in 4 hour cycles for ca. 24 h with agitation. Slurries were isolated by centrifugation and solutions allowed to evaporate at ambient temperature. XRPD analysis was carried out for the solids which were obtained.

≈ marks a conversion by molar mass, not a printed value. Structures can show the parent of a compound that is named as a salt.

Take `NC(N)=N/N=C/C=C/c1cccn1-c1ccccc1[N+](=O)[O-]` [AP1189 freebase Pattern 1, 2-{3-[1-(2-nitrophenyl)-1H-pyrrol-2-yl]prop-2-en-1-ylidine}hydrazine-1-carboximidamide]: the solubility at 24 h in series [1] (pH 1.29, 0.2 M HCl/KCl, initial pH 2.05 → 1.24, 24 h pH 1.29, input 83* mM (estimated), ambient temperature) was more than 44.1 mM; in series [1] (pH 1.54, FaSSGF (Fasted State Simulated Gastric Fluid), initial pH 1.60, 24 h pH 1.54, ambient temperature), 13.9 mM (≈ 4140 µg/mL). In addition, the “Solubility at pH 4.5 (in words)” value in [1] (pH 4.5, compared to AP1189 fumarate Pattern 1) is reported as “high solubility at pH 4.5 compared to test compound AP1189 fumarate Pattern 1”.
For the compound `NC(N)=N/N=C/C=C/c1cccn1-c1ccccc1[N+](=O)[O-]` [AP1189, 2-{3-[1-(2-nitrophenyl)-1H-pyrrol-2-yl]prop-2-en-1-ylidine}hydrazine-1-carboximidamide], in series [2], the MC1R-induced melanogenesis entry was “no MC1R-induced melanogenesis”. In series [3], the “binding to MC1R” value is reported as “shown to bind the MC1R”. Further, the “agonism at MC3R” value in [4] was “biased dual agonist at receptors MC1R and MC3R”. In addition, the “canonical cAMP generation” value in [5] is reported as “does not provoke canonical cAMP generation”. In addition, the “Solubility at acidic conditions (in words)” value in [1] (acidic conditions) is “highly soluble at acidic conditions”. Also, the “Solubility at pH 1.2 (in words)” value was “high solubility at pH 1.2” in series [1] and “high solubility at pH 1.2 compared to the test compound AP1189 fumarate Pattern 1” in series [1] (listed as AP1189 free base). Besides, the “agonism at MC1R” value in [6] is “biased dual agonist at receptors MC1R and MC3R”. The ERK1/2-phosphorylation result in series [7] is “appear to induce alternative pathways including ERK1/2-phosphorylation”. Moreover, in series [8], the “Ca2+ mobilisation” value is “appear to induce alternative pathways including ERK1/2-phosphorylation and Ca^2 mobilisation”. Moreover, the solubility was less than 7000 µg/mL in series [9] (Water); not below 10000 µg/mL in series [9] (organic solvent or mixture, 2-Methyl THF); less than 7000 µg/mL in series [9] (organic solvent or mixture, 2-Propanol); not below 10000 µg/mL in series [9] (organic solvent or mixture, 90% 2-Propanol: 10% Water (% v/v) (calculated aw 0.6)); not below 15000 µg/mL in [9] (organic solvent or mixture, 98.5% Ethanol : 1.5% Water (% v/v) (calculated aw 0.2)); not below 49000 µg/mL in series [9] (organic solvent or mixture, Acetone). The solubility in series [9] (organic solvent or mixture, Acetonitrile) is not below 27000 µg/mL; in series [9] (organic solvent or mixture, Dichloromethane) it was less than 7000 µg/mL; in [9] (organic solvent or mixture, Dimethylsulfoxide) it was not below 136000 µg/mL; in [9] (organic solvent or mixture, Ethanol), not below 13000 µg/mL; in series [9] (organic solvent or mixture, Ethyl Acetate), less than 7000 µg/mL; in series [9] (organic solvent or mixture, Heptane), less than 7000 µg/mL. The solubility in [9] (organic solvent or mixture, Methanol) was not below 142000 µg/mL; in series [9] (organic solvent or mixture, Methylethyl Ketone), not below 17000 µg/mL; in [9] (organic solvent or mixture, Methylisobutyl Ketone) it was less than 7000 µg/mL; in [9] (organic solvent or mixture, Tetrahydrofuran), not below 35000 µg/mL; in [9] (organic solvent or mixture, Toluene), less than 7000 µg/mL; in series [9] (organic solvent or mixture, tert-Butylmethyl ether) it was less than 7000 µg/mL.
`NC(N)=N/N=C/C=C/c1cccn1-c1ccccc1[N+](=O)[O-]` [Fumarate Salt Pattern 1] came in with a solubility at 24 h in series [1] (pH 1.29, 0.2 M HCl/KCl, initial pH 1.35 → 1.18, 24 h pH 1.29, input 38 mM, ambient temperature) of 10.9 mM.
As to `NC(N)=N/N=C/C=C/c1cccn1-c1ccccc1[N+](=O)[O-]` [Tosylate Salt Pattern 1, 2-{3-[1-(2-nitrophenyl)-1H-pyrrol-2-yl]prop-2-en-1-ylidine}hydrazine-1-carboximidamide tosylate], the solubility at 24 h in [1] (pH 1.26, 0.2 M HCl/KCl, initial pH 1.22, 24 h pH 1.26, input 31 mM, ambient temperature) is 0.31 mM. Besides, the “Solubility at low pH (in words)” value in [1] (low pH, e.g. pH 1.2-1.3 or pH 4.5) is recorded as “low solubility at low pH”.
